Data reported in publication PMC4300089, “Structure-Guided Design of Selective Epac1 and Epac2 Agonists” (PLoS Biology, 2015).

Columns and labels:
Epac2^Δ280,K450A = target: T1, Epac2^Δ280,K450A (Mus musculus, UniProt Q9EQZ6, K468A); assay: Epac activation assay, Epac2 K450A mutant; type: biochemical
T1 construct: made in house
T1 sequence (Q9EQZ6 281-993 isoform Q9EQZ6-3 K450A): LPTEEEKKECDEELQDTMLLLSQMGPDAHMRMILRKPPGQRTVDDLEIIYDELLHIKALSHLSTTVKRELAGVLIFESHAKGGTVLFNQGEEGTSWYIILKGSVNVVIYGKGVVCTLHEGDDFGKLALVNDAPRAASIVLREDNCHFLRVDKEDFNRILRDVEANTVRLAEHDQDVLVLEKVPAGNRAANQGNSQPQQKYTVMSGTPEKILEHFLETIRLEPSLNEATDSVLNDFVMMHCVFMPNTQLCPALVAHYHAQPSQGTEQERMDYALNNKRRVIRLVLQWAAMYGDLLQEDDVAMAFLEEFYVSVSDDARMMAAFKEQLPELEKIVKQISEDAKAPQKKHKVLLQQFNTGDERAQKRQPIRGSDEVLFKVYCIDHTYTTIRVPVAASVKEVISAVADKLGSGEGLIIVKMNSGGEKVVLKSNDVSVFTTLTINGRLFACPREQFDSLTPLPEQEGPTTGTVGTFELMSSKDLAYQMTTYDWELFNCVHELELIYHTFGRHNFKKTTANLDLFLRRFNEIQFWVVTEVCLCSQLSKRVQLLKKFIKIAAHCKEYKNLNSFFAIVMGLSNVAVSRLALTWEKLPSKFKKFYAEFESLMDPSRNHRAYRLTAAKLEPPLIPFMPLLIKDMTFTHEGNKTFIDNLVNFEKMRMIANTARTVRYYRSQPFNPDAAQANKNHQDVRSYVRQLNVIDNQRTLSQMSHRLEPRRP
Experimental: Murine Epac2 was used as all previous structural studies were performed with it.
The activity of Epac was determined by a fluorescence assay. […] The fluorescence intensity of Rap1B•mGDP is approximately twice that of free mGDP, and thus, nucleotide exchange can be observed as a decay in fluorescence upon the addition of excess unlabeled GDP.

Epac1 = target: T2, Epac1 (Homo sapiens, UniProt O95398); design: method as in PMID 12888551; details: footnote c, see also ref 13; cited from earlier work
T2 construct: made in house
T2 sequence (O95398 150-881 isoform O95398-3): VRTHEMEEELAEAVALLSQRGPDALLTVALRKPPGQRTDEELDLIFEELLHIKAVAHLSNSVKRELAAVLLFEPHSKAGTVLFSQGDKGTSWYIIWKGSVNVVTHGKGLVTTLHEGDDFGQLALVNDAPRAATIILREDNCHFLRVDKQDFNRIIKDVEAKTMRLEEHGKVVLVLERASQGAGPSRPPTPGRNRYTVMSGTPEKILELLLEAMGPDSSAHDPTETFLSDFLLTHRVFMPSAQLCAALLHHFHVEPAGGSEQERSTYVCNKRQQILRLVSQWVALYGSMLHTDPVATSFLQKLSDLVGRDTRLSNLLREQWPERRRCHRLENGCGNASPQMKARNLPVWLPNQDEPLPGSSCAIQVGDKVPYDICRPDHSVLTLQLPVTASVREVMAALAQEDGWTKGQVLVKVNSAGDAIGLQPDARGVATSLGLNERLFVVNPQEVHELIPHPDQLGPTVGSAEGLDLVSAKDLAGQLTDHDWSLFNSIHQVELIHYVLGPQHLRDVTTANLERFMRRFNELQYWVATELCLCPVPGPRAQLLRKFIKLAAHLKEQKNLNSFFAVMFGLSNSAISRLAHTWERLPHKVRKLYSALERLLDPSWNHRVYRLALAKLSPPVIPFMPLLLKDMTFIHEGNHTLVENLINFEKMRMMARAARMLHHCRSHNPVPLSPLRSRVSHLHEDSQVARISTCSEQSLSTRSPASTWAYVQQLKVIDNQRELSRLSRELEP

Nc1ncnc2c1ncn2C1OC2COP(O)(=S)OC2C1O (centres unmarked) [S-000, Sp-cAMPS]
kobs (Epac2^Δ280,K450A; 0.01 μM compound): 2.9e-05 s⁻¹ | kobs (Epac2^Δ280,K450A; 0.03 μM compound): 3.7e-05 s⁻¹ | kobs (Epac2^Δ280,K450A; 0.05 μM compound): 4.5e-05 s⁻¹ | kobs (Epac2^Δ280,K450A; 0.08 μM compound): 5.2e-05 s⁻¹ | kobs (Epac2^Δ280,K450A; 0.2 μM compound): 9.9e-05 s⁻¹ | kobs (Epac2^Δ280,K450A; 0.3 μM compound): 0.000114 s⁻¹ | kobs (Epac2^Δ280,K450A; 0.5 μM compound): 0.000137 s⁻¹ | kobs (Epac2^Δ280,K450A; 0.6 μM compound): 0.000137 s⁻¹ | kobs (Epac2^Δ280,K450A; 0.7 μM compound): 0.000253 s⁻¹ | kobs (Epac2^Δ280,K450A; 0.8 μM compound): 0.000277 s⁻¹ | kobs (Epac2^Δ280,K450A; 1 μM compound): 0.000309 s⁻¹ | kobs (Epac2^Δ280,K450A; 2 μM compound): 0.000364 s⁻¹ | kobs (Epac2^Δ280,K450A; 3 μM compound): 0.00043 s⁻¹ | kobs (Epac2^Δ280,K450A; 4 μM compound): 0.000497 s⁻¹ | kobs (Epac2^Δ280,K450A; 5 μM compound): 0.000529 s⁻¹ | kobs (Epac2^Δ280,K450A; 6 μM compound): 0.000661 s⁻¹ | kobs (Epac2^Δ280,K450A; 7 μM compound): 0.000655 s⁻¹ | kobs (Epac2^Δ280,K450A; 8 μM compound): 0.000698 s⁻¹ | kobs (Epac2^Δ280,K450A; 10 μM compound): 0.000703 s⁻¹ | kobs (Epac2^Δ280,K450A; 20 μM compound): 0.000752 s⁻¹ | kobs (Epac2^Δ280,K450A; 30 μM compound): 0.000754 s⁻¹ | kobs (Epac2^Δ280,K450A; 40 μM compound): 0.000809 s⁻¹ | kobs (Epac2^Δ280,K450A; 50 μM compound): 0.000778 s⁻¹ | kobs (Epac2^Δ280,K450A; 60 μM compound): 0.000824 s⁻¹ | kobs (Epac2^Δ280,K450A; 70 μM compound): 0.000828 s⁻¹ | kobs (Epac2^Δ280,K450A; 80 μM compound): 0.000833 s⁻¹ | kobs (Epac2^Δ280,K450A; 100 μM compound): 0.000821 s⁻¹ | AC50 (Epac1): 90 µM | Rel. kmax (Epac1): 1.4^c
